Key:
Assay in all cases: Growth inhibition assay for breast cancer
Format in all cases: cell-based
[1] = test system: MCF10A; settings: MCF10A (Basal, TN), 96 hours
Excerpt: (§1) Growth Inhibition Assay for Breast Cancer (BC) (Compound 1). All breast cancer cell lines were maintained and tested in appropriate culture media. The seeding density for each cell line was optimized to ensure assay linearity in 384-well plates.
(§2) Increasing concentrations of Compound 1 were spotted via an acoustic dispenser (EDC ATS-100) into an empty 384-well plate. Compound 1 was spotted in a 10-point serial dilution fashion (3-fold dilution) in duplicate within the plate. The dimethyl sulfoxide (DMSO) concentration was kept constant for a final assay concentration of 0.1% DMSO. Plates were replicated for use against different cell lines and testing periods. After compound plate replication, all plates were sealed (Agilent ThermoLoc) and stored at −20° C. for up to 1 month. When ready for testing, plates were removed from the freezer, thawed, and unsealed just prior to the addition of the test cell.
(§3) Prior to testing, cells were grown and expanded in culture flasks to provide sufficient amounts of starting material. Cells were then diluted to their desired densities and added directly to the Compound 1-spotted 384-well plates. Cells were allowed to grow for 96 hours at 37° C./5% CO2. At the time of setup (t0), initial cell number was assessed via a viability assay (Cell Titer-Glo) and read for luminescence. After 96 hours, cell viability of Compound 1-treated cells was assessed via Cell Titer-Glo and read for luminescence.
(§4) Cell lines were assayed for growth inhibition by Compound 1 for at least two independent tests. All data was normalized and represented as a percentage of the DMSO-treated control cells. […] The potency of Compound 1 in different subtypes of breast cancer cell lines is shown in FIG. 7A, while the correlation of Compound 1 sensitivity to ER, HER, PIK3CA, and TP53 status is shown in FIG. 7B.

[2] = test system: BT-474; settings: BT-474 (Luminal, Her2+), 96 hours
Excerpt: as §1, §2, §3, §4

[3] = test system: NCI/ADR-RES; settings: NCI/ADR-RES (Basal, TN), 96 hours
Excerpt: as §1, §2, §3, §4

[4] = test system: HCC1569; settings: HCC1569 (Basal, Her2+), 96 hours
Excerpt: as §1, §2, §3, §4

[5] = test system: CAMA-1; settings: CAMA-1 (Luminal, ER+), 96 hours
Excerpt: as §1, §2, §3, §4

[6] = test system: MCF7; settings: MCF7 (Luminal, ER+), 96 hours
Excerpt: as §1, §2, §3, §4

[7] = test system: MDA-MB-231; settings: MDA-MB-231 (Basal, TN), 96 hours
Excerpt: as §1, §2, §3, §4

[8] = test system: BT-20; settings: BT-20 (Basal, TN), 96 hours
Excerpt: as §1, §2, §3, §4

[9] = test system: T47D; settings: T47D (Luminal, ER+), 96 hours
Excerpt: as §1, §2, §3, §4

[10] = test system: MDA-MB-157; settings: MDA-MB-157 (Basal, TN), 96 hours
Excerpt: as §1, §2, §3, §4

[11] = test system: HCC38; settings: HCC38 (Basal, TN), 96 hours
Excerpt: as §1, §2, §3, §4

[12] = test system: MDA-MB-415; settings: MDA-MB-415 (Luminal, ER+), 96 hours
Excerpt: as §1, §2, §3, §4

[13] = test system: HCC202; settings: HCC202 (Luminal, Her2+), 96 hours
Excerpt: as §1, §2, §3, §4

[14] = test system: HCC1143; settings: HCC1143 (Basal, TN), 96 hours
Excerpt: as §1, §2, §3, §4

[15] = test system: HCC1500; settings: HCC1500 (Luminal, ER+), 96 hours
Excerpt: as §1, §2, §3, §4

[16] = test system: MDA-MB-361; settings: MDA-MB-361 (Luminal, Her2+), 96 hours
Excerpt: as §1, §2, §3, §4

[17] = test system: MDA-MB-468; settings: MDA-MB-468 (Basal, TN), 96 hours
Excerpt: as §1, §2, §3, §4

[18] = test system: EFM-19; settings: EFM-19 (Luminal, ER+), 96 hours
Excerpt: as §1, §2, §3, §4

[19] = test system: HCC1187; settings: HCC1187 (Basal, TN), 96 hours
Excerpt: as §1, §2, §3, §4

[20] = test system: AU565; settings: AU565 (Luminal, Her2+), 96 hours
Excerpt: as §1, §2, §3, §4

[21] = test system: CAL-85-1; settings: CAL-85-1 (Basal, TN), 96 hours
Excerpt: as §1, §2, §3, §4

[22] = test system: BT-549; settings: BT-549 (Basal, TN), 96 hours
Excerpt: as §1, §2, §3, §4

[23] = test system: SK-BR-3; settings: SK-BR-3 (Luminal, Her2+), 96 hours
Excerpt: as §1, §2, §3, §4

[24] = test system: KPL-1; settings: KPL-1 (Luminal, ER+), 96 hours
Excerpt: as §1, §2, §3, §4

[25] = test system: HCC70; settings: HCC70 (Basal, TN), 96 hours
Excerpt: as §1, §2, §3, §4

[26] = test system: ZR-75-30; settings: ZR-75-30 (Luminal, Her2+), 96 hours
Excerpt: as §1, §2, §3, §4

[27] = test system: MDA-MB-175-VII; settings: MDA-MB-175-VII (Luminal, ER+), 96 hours
Excerpt: as §1, §2, §3, §4

[28] = test system: BT-483; settings: BT-483 (Luminal, ER+), 96 hours
Excerpt: as §1, §2, §3, §4

[29] = test system: MDA-MB-134-VI; settings: MDA-MB-134-VI (Luminal, ER+), 96 hours
Excerpt: as §1, §2, §3, §4

[30] = test system: MDA-MB-435; settings: MDA-MB-435 (Basal, TN), 96 hours
Excerpt: as §1, §2, §3, §4

[31] = test system: MDA-MB-436; settings: MDA-MB-436 (Basal, TN), 96 hours
Excerpt: as §1, §2, §3, §4

CO[C@H]1CC[C@H](N2C(=O)CNc3ncc(-c4ccc(C(C)(C)O)nc4)nc32)CC1 [Compound 1, 7-(6-(2-hydroxypropan-2-yl)pyridin-3-yl)-1-((1r,4r)-4-methoxycyclohexyl)-3,4-dihydropyrazino-[2,3-b]pyrazin-2(1H)-one]
GI50 [1]: 147 nM | GI50 [2]: 226 nM | GI50 [3]: 944 nM | GI50 [4]: 356 nM | GI50 [5]: 146 nM | GI50 [6]: 181 nM | GI50 [7]: 710 nM | GI50 [8]: 330 nM | GI50 [9]: 55.3 nM | GI50 [10]: 4340 nM | GI50 [11]: 2950 nM | GI50 [12]: 169 nM | GI50 [13]: 20.1 nM | GI50 [14]: 343 nM | GI50 [15]: 24.8 nM | GI50 [16]: 65.7 nM | GI50 [17]: 1860 nM | GI50 [18]: 57.2 nM | GI50 [19]: 567 nM | GI50 [20]: 213 nM | GI50 [21]: 253 nM | GI50 [22]: 149 nM | GI50 [23]: 121 nM | GI50 [24]: 97.3 nM | GI50 [25]: 172 nM | GI50 [26]: 63.4 nM | GI50 [27]: 40.8 nM | GI50 [28]: 21.7 nM | GI50 [29]: 101 nM | GI50 [30]: 222 nM | GI50 [31]: 2990 nM
